# From patent US20160009693A1, “HERBICIDAL COMPOUNDS” (SYNGENTA LIMITED, priority 2013, published 2016)
# Legend:
# Assay type in all cases: in vivo
# Details in all cases: applied at 1000 g/h, evaluated after 13 days
# [1] = test system: Alopecurus myosuroides (ALOMY); assay: Herbicidal glasshouse test, post-emergence, ALOMY
# Setaria faberi (SETFA) [2] = assay: Herbicidal glasshouse test, pre-emergence, SETFA
# [3] = test system: Ipomoea hederacea (IPOHE); assay: Herbicidal glasshouse test, post-emergence, IPOHE
# [4] = test system: Echinochloa crus-galli (ECHCG); assay: Herbicidal glasshouse test, pre-emergence, ECHCG
# In short: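 Echinochloa crus-galli seeds were sown in standard soil in pots and grown for one day in a glasshouse at 24/16° C. day/night, 14 hours light and 65% humidity. Pre-emergence spraying used an aqueous solution of the active ingredient in acetone/water (50:50) with 0.5% Tween 20. Damage was scored after 13 days on a five point scale.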
# [5] = test system: Amaranthus retoflexus (AMARE); assay: Herbicidal glasshouse test, post-emergence, AMARE
# In short: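 Amaranthus retoflexus (AMARE) seeds were sown in pots of standard soil and grown in a glasshouse at 24/16° C. day/night, 14 hours light and 65% humidity for 8 days. The plants were then sprayed post-emergence with an aqueous solution of the active ingredient in acetone/water (50:50) with 0.5% Tween 20. Damage was scored after 13 days.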
# [6] = test system: Amaranthus retoflexus (AMARE); assay: Herbicidal glasshouse test, pre-emergence, AMARE
# In short: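 Amaranthus retoflexus seeds were sown in pots of standard soil and kept one day in a glasshouse at 24/16° C. (day/night), 14 hours light and 65% humidity. They were then sprayed pre-emergence with the active ingredient in acetone/water (50:50) containing 0.5% Tween 20. Plants grew under the same conditions, watered twice daily, and percentage damage was scored after 13 days.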
# [7] = test system: Echinochloa crus-galli (ECHCG); assay: Herbicidal glasshouse test, post-emergence, ECHCG
# In short: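 Echinochloa crus-galli (ECHCG) seeds were sown in standard soil in pots and grown for 8 days in a glasshouse at 24/16° C. day/night, 14 hours light and 65% humidity. The young plants were then sprayed post-emergence with the active ingredient in acetone / water (50:50) containing 0.5% Tween 20. Damage was scored after 13 days.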
# Solanum nigrum (SOLNI) [8] = assay: Herbicidal glasshouse test, post-emergence, SOLNI
# [9] = test system: Alopecurus myosuroides (ALOMY); assay: Herbicidal glasshouse test, pre-emergence, ALOMY
# Setaria faberi (SETFA) [10] = assay: Herbicidal glasshouse test, post-emergence, SETFA
# In short: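 Setaria faberi seeds were sown in standard soil in pots and grown for 8 days in a glasshouse at 24/16° C. day/night, 14 hours light and 65% humidity. The seedlings were then sprayed post-emergence with the active ingredient in acetone/water (50:50) containing 0.5% Tween 20. Afterwards they were kept under the same conditions, watered twice daily, and scored for percentage damage on a five point scale.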
# [11] = test system: Ipomoea hederacea (IPOHE); assay: Herbicidal glasshouse test, pre-emergence, IPOHE
# Solanum nigrum (SOLNI) [12] = assay: Herbicidal glasshouse test, pre-emergence, SOLNI
# In short: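 Seeds of Solanum nigrum were sown in pots of standard soil and kept one day in a glasshouse at 24/16° C. day/night, 14 hours light and 65% humidity. For the pre-emergence treatment they were then sprayed with an aqueous solution of the active ingredient formulated in acetone/water (50:50) containing 0.5% Tween 20. Plant damage was rated after 13 days.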
structure (smiles),measurement,setting,value
CC#CCn1c(=O)c(C(=O)Nc2nnnn2C)nn(C)c1=O [Compound 1.092],"POST Application ALOMY, percentage damage (five point scale)",[1],4 (4=60-79%)
same,"PRE Application SETFA, percentage damage (five point scale)",Setaria faberi (SETFA) [2],5 (5=80-100%)
same,"POST Application IPOHE, percentage damage (five point scale)",[3],5 (5=80-100%)
same,"PRE Application ECHCG, percentage damage (five point scale)",[4],5 (5=80-100%)
same,"POST Application AMARE, percentage damage (five point scale)",[5],5 (5=80-100%)
same,"PRE Application AMARE, percentage damage (five point scale)",[6],5 (5=80-100%)
same,"POST Application ECHCG, percentage damage (five point scale)",[7],5 (5=80-100%)
same,"POST Application SOLNI, percentage damage (five point scale)",Solanum nigrum (SOLNI) [8],5 (5=80-100%)
same,"PRE Application ALOMY, percentage damage (five point scale)",[9],4 (4=60-79%)
same,"POST Application SETFA, percentage damage (five point scale)",Setaria faberi (SETFA) [10],5 (5=80-100%)
same,"PRE Application IPOHE, percentage damage (five point scale)",[11],5 (5=80-100%)
same,"PRE Application SOLNI, percentage damage (five point scale)",Solanum nigrum (SOLNI) [12],5 (5=80-100%)
Cn1nnnc1NC(=O)c1nn(C)c(=O)n(CC2CC2)c1=O [Compound 1.093],"POST Application ALOMY, percentage damage (five point scale)",[1],5 (5=80-100%)
same,"PRE Application SETFA, percentage damage (five point scale)",Setaria faberi (SETFA) [2],5 (5=80-100%)
same,"POST Application IPOHE, percentage damage (five point scale)",[3],5 (5=80-100%)
same,"PRE Application ECHCG, percentage damage (five point scale)",[4],5 (5=80-100%)
same,"POST Application AMARE, percentage damage (five point scale)",[5],5 (5=80-100%)
same,"PRE Application AMARE, percentage damage (five point scale)",[6],5 (5=80-100%)
same,"POST Application ECHCG, percentage damage (five point scale)",[7],5 (5=80-100%)
same,"POST Application SOLNI, percentage damage (five point scale)",Solanum nigrum (SOLNI) [8],5 (5=80-100%)
same,"PRE Application ALOMY, percentage damage (five point scale)",[9],5 (5=80-100%)
same,"POST Application SETFA, percentage damage (five point scale)",Setaria faberi (SETFA) [10],5 (5=80-100%)
same,"PRE Application IPOHE, percentage damage (five point scale)",[11],5 (5=80-100%)
same,"PRE Application SOLNI, percentage damage (five point scale)",Solanum nigrum (SOLNI) [12],5 (5=80-100%)
Cn1nnnc1NC(=O)c1nn(C)c(=O)n(CCC(F)(F)F)c1=O [Compound 1.094],"POST Application ALOMY, percentage damage (five point scale)",[1],5 (5=80-100%)
same,"PRE Application SETFA, percentage damage (five point scale)",Setaria faberi (SETFA) [2],5 (5=80-100%)
same,"POST Application IPOHE, percentage damage (five point scale)",[3],5 (5=80-100%)
same,"PRE Application ECHCG, percentage damage (five point scale)",[4],5 (5=80-100%)
same,"POST Application AMARE, percentage damage (five point scale)",[5],5 (5=80-100%)
same,"PRE Application AMARE, percentage damage (five point scale)",[6],5 (5=80-100%)
same,"POST Application ECHCG, percentage damage (five point scale)",[7],5 (5=80-100%)
same,"POST Application SOLNI, percentage damage (five point scale)",Solanum nigrum (SOLNI) [8],5 (5=80-100%)
same,"PRE Application ALOMY, percentage damage (five point scale)",[9],5 (5=80-100%)
same,"POST Application SETFA, percentage damage (five point scale)",Setaria faberi (SETFA) [10],5 (5=80-100%)
same,"PRE Application IPOHE, percentage damage (five point scale)",[11],5 (5=80-100%)
same,"PRE Application SOLNI, percentage damage (five point scale)",Solanum nigrum (SOLNI) [12],5 (5=80-100%)
Cn1nnnc1NC(=O)c1nn(C)c(=O)n(CC2CCOCC2)c1=O [Compound 1.095],"POST Application ALOMY, percentage damage (five point scale)",[1],5 (5=80-100%)
same,"PRE Application SETFA, percentage damage (five point scale)",Setaria faberi (SETFA) [2],5 (5=80-100%)
same,"POST Application IPOHE, percentage damage (five point scale)",[3],5 (5=80-100%)
same,"PRE Application ECHCG, percentage damage (five point scale)",[4],5 (5=80-100%)
same,"POST Application AMARE, percentage damage (five point scale)",[5],5 (5=80-100%)
same,"PRE Application AMARE, percentage damage (five point scale)",[6],5 (5=80-100%)
same,"POST Application ECHCG, percentage damage (five point scale)",[7],5 (5=80-100%)
same,"POST Application SOLNI, percentage damage (five point scale)",Solanum nigrum (SOLNI) [8],5 (5=80-100%)
same,"PRE Application ALOMY, percentage damage (five point scale)",[9],5 (5=80-100%)
same,"POST Application SETFA, percentage damage (five point scale)",Setaria faberi (SETFA) [10],5 (5=80-100%)
same,"PRE Application IPOHE, percentage damage (five point scale)",[11],5 (5=80-100%)
same,"PRE Application SOLNI, percentage damage (five point scale)",Solanum nigrum (SOLNI) [12],5 (5=80-100%)
